The text below walks through data of publication PMC5189922 (Journal of medicinal chemistry, 2016).

Each structure is given as a SMILES string. Entries after “also recorded” stand apart in the source; their conditions may differ. Some results are limits rather than exact numbers.

The nature of series [1]: Accelerating rotarod performance assay. Background: The rotarod test checks motor coordination on a turning rod.
Series [2] concerns human µ-opioid receptor β-arrestin-2. Kind of series: MOR-mediated β-arrestin-2 recruitment. Type of series: cell-based. On the technique in general: Activated receptors often draw arrestin, which recruitment assays turn into a signal.
Series [3] is described as follows: Conditioned place preference. As to conditions: male Sprague Dawley rats, vs vehicle.
The target of series [4] is human κ-opioid receptor (Homo sapiens, UniProt P41145). The series is classed as cell-based.
A short description of series [5]: Hot water. Type of series: in vivo, mice. The note with it: for antinociceptive effect in tail-flick assay: male B6-SJL mice, 10 s cutoff.
Series [6] has as its target human µ-opioid receptor (Homo sapiens, UniProt P35372). The series is classed as cell-based.
Series [7] is described as follows: Cumulative dose-response tail-flick assay and tolerance evaluation. Type of series: in vivo, mice. As to conditions: cumulative dosing, day 9 after daily 10 mg/kg s.c. on days 2–8 (tolerance).

Chain of human κ-opioid receptor (P41145 whole entry): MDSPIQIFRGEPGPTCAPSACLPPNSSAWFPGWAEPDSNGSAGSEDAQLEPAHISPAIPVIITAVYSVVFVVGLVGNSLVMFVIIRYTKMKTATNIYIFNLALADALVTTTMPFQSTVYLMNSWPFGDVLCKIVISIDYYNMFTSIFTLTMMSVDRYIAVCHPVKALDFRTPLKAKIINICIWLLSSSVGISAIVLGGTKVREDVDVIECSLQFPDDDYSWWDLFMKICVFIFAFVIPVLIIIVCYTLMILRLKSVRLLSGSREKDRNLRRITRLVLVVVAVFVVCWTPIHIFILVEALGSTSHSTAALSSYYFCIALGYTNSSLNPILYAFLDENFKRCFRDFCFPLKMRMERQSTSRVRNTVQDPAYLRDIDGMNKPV
Chain of human µ-opioid receptor (P35372 whole entry): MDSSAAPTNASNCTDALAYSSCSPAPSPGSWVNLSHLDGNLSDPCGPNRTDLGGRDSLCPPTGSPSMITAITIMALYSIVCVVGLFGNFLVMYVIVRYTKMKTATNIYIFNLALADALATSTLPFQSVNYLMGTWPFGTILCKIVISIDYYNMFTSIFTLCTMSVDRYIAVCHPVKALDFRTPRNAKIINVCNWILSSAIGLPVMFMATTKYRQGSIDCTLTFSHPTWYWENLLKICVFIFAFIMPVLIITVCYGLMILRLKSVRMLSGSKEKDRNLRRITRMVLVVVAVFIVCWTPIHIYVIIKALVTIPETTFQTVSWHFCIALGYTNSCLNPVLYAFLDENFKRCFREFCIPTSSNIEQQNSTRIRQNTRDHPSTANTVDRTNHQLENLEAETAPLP

By EC50 is commonly meant the concentration giving half of the maximal effect. As to `COC(=O)[C@@H]1C[C@H](OC(=O)c2ccccc2)C(=O)[C@H]2[C@@]1(C)CC[C@H]1C(=O)O[C@H](c3ccoc3)C[C@]21C` [Compound 2, herkinorin, reference compound], in series [1] (dose not given, data not shown), the “motor coordination on rotarod” value is “no observable effect on motor co-ordination”. For the same compound, in series [2] (read-out: β-arrestin-2 recruitment EC50), the EC50 was greater than 3000 nM. In addition, the “conditioned place preference (CPP score)” value in series [3] (5 mg/kg) is “Neither 5 (5 and 10 mg/kg) nor 2 (5 mg/kg) were significantly different to vehicle”. Besides, in series [4], the “activity at KORs (in words)” value is reported as “partial agonist”. In series [5] (1, 5, and 10 mg/kg i.p.), the “antinociceptive effect in tail-flick assay” value was “no significant antinociceptive effects”.

In the case of `CC(=O)O[C@@H]1C[C@H](NC(=O)c2ccccc2)C(=O)[C@H]2[C@@]1(C)CC[C@H]1C(=O)O[C@H](c3ccoc3)C[C@]21C` [Compound 3, herkamide, reference compound], the “Selectivity κ/µ” value in series [6] is >3 000.

For the compound `COC(=O)[C@@H]1C[C@@H](OC(=O)c2ccccc2)C(=O)[C@H]2[C@@]1(C)CC[C@H]1C(=O)O[C@H](c3ccoc3)C[C@]21C` [Compound 4], the “activity at KORs (in words)” value in series [4] is on record as “complete loss of activity”. The “activity at MORs (in words)” value in series [6] is reported as “complete loss of activity”.

As to `COC(=O)[C@@H]1C=C(OC(=O)c2ccccc2)C(=O)[C@H]2[C@@]1(C)CC[C@H]1C(=O)O[C@H](c3ccoc3)C[C@]21C` [Compound 5, (2S,4aR, 6aR,7R,10aR,10bR)-Methyl 9-((benzoyl)oxy)-2-(furan-3-yl)-6a,10b-dimethyl-4,10-dioxo-2,4,4a,5,6,6a,7,10,10a,10b-decahydro-1H-benzo[f]isochromene-7-carboxylate], the “EC50 antinociception day 9” value in series [7] came to 7.9 mg/kg. Further, in series [1] (10 mg/kg i.p., 4 to 40 rpm over 300 s), the “motor coordination / sedation on rotarod” value is recorded as “slight sedation only at the 15 min time point”. Moreover, the Emax in series [2] (read-out: % Efficacy ± SEM) turned out to be 96 ± 3%. Besides, the “conditioned place preference (CPP score)” value in series [3] (5 mg/kg and 10 mg/kg i.p.) is “CPP score similar to the vehicle control; also recorded: Neither 5 (5 and 10 mg/kg) nor 2 (5 mg/kg) were significantly different to vehicle”. The “activity at KORs (in words)” value in series [4] is reported as “no activity”. In series [5] (10 mg/kg i.p.), the “time of maximal antinociceptive effects” value is given as 30 min. The “antinociceptive effect in tail-flick assay” value in series [5] (5 and 10 mg/kg i.p., vs vehicle) is “significant antinociceptive effects”. In series [5] (naloxone 10 mg/kg s.c. 45 min pre-treatment), the “antinociceptive effect after naloxone pre-treatment” value is given as “blocked”.

With `COC(=O)[C@@H]1C=C(O)C(=O)[C@H]2[C@@]1(C)CC[C@H]1C(=O)O[C@H](c3ccoc3)C[C@]21C` [Compound 7a, Methyl-(2S,4aR,6aR/S,7R,10aR,10bR)-2-(furan-3-yl)-9-hydroxy-6a,10b-dimethyl-4,10-dioxo-2,4,4a,5,6,6a,7,10,10a,10b-decahydro-1H-;benzo[f]isochromene-7-carboxylate], the “activity at KORs (in words)” value in series [4] is listed as “active”.

In the case of `COC(=O)[C@@H]1CC(=O)C(O)=C2[C@@]1(C)CC[C@H]1C(=O)O[C@H](c3ccoc3)C[C@]21C` [Compound 7b, Methyl-(2S,4aR,6aS,7R,10bS)-2-(furan-3-yl)-10-hydroxy-6a,10b-dimethyl-4,9-dioxo-1,4,4a,5,6,6a,7,8,9,10b-decahydro-2H-benzo[f]isochromene-7-carboxylate], the “activity at KORs (in words)” value in series [4] was “completely inactive”.

For the compound `CC(=O)O[C@@H]1C=C(OC(=O)c2cccc(F)c2)C(=O)[C@H]2[C@@]1(C)CC[C@H]1C(=O)O[C@H](c3ccoc3)C[C@]21C` [Compound 9b], the “Selectivity κ/µ” value in series [6] is listed as >2 000.
